These results are taken from the NIST ThermoML archive (doi:10.1016/j.jct.2012.02.011).

The nature of data set [1]: relative permittivity at various frequencies (dimensionless). Conditions: 101.3 kPa, Liquid, Frequency=3 MHz.
A short description of data set [2]: relative permittivity at various frequencies (dimensionless); xn = mol fraction of the nth substance listed. The settings on record: 101.33 kPa, Liquid, Frequency=3 MHz, OH-301.

Where “and” joins values, the source holds several entries; their conditions need not be identical. Equal values may be shown once. ± gives the expanded uncertainty stated by the source.

In the case of `CCCCOCCO` [2-butoxyethan-1-ol], the relative permittivity in data set [1] (293.15 K, OH-301) is given as 9.78 ± 0.04; in data set [1] (298.15 K, OH-301), 9.35 ± 0.04; in data set [1] (303.15 K, OH-301), 8.88 ± 0.04; in data set [1] (308.15 K, OH-301), 8.39 ± 0.04; in data set [1] (313.15 K, OH-301), 7.91 ± 0.04.

On to `CCOCCO` [2-ethoxyethan-1-ol], for which the relative permittivity is listed as 14.25 ± 0.04 in data set [1] (293.15 K, OH-301); 14.03 ± 0.04 in data set [1] (298.15 K, OH-301); 13.76 ± 0.04 in data set [1] (303.15 K, OH-301); 13.44 ± 0.04 in data set [1] (308.15 K, OH-301); 13.07 ± 0.04 in data set [1] (313.15 K, OH-301).

Regarding `COCCO` [2-methoxyethan-1-ol], the relative permittivity is 17.38 ± 0.04 in data set [1] (293.15 K, OH-301); 16.95 ± 0.04 and 16.96 ± 0.04 in data set [1] (298.15 K, OH-301); 16.56 ± 0.04 in data set [1] (303.15 K, OH-301); 16.16 ± 0.04 in data set [1] (308.15 K, OH-301); 15.77 ± 0.04 in data set [1] (313.15 K, OH-301).

As for `COCCO` [2-methoxyethan-1-ol] + O=[N+]([O-])c1ccccc1, the relative permittivity in data set [2] (293.15 K, x2 = 0) is given as 17.38 ± 0.04; in data set [2] (298.15 K, x2 = 0), 16.96 ± 0.04; in data set [2] (303.15 K, x2 = 0), 16.56 ± 0.04; in data set [2] (308.15 K, x2 = 0), 16.16 ± 0.04; in data set [2] (313.15 K, x2 = 0) it was 15.77 ± 0.04.

As to `CCCOCCO` [2-propoxyethanol], the relative permittivity in data set [1] (293.15 K, OH-301) is 11.76 ± 0.04; in data set [1] (298.15 K, OH-301) it was 11.5 ± 0.04; in data set [1] (303.15 K, OH-301), 11.19 ± 0.04; in data set [1] (308.15 K, OH-301), 10.91 ± 0.04; in data set [1] (313.15 K, OH-301) it was 10.62 ± 0.04.

`O=[N+]([O-])c1ccccc1` [nitrobenzene]: the relative permittivity in data set [1] (293.15 K, OH-301 Stainless Steel Cell) worked out at 35.91 ± 0.06; in data set [1] (298.15 K, OH-301 Stainless Steel Cell), 34.78 ± 0.04; in data set [1] (303.15 K, OH-301 Stainless Steel Cell) it was 33.84 ± 0.05; in data set [1] (308.15 K, OH-301 Stainless Steel Cell), 33.13 ± 0.05; in data set [1] (313.15 K, OH-301 Stainless Steel Cell), 32.66 ± 0.04.

For `O=[N+]([O-])c1ccccc1` [nitrobenzene] + CCCCOCCO, the relative permittivity in data set [2] (293.15 K, x1 = 1) is 35.91 ± 0.06; in data set [2] (298.15 K, x1 = 1) it was 34.78 ± 0.06; in data set [2] (303.15 K, x1 = 1), 33.84 ± 0.05; in data set [2] (308.15 K, x1 = 1), 33.13 ± 0.05; in data set [2] (313.15 K, x1 = 1), 32.66 ± 0.04.

For the compound `O=[N+]([O-])c1ccccc1` [nitrobenzene] + CCCOCCO, the relative permittivity in data set [2] (293.15 K, x1 = 1) is 35.91 ± 0.06; in data set [2] (298.15 K, x1 = 1), 34.78 ± 0.06; in data set [2] (303.15 K, x1 = 1), 33.84 ± 0.05; in data set [2] (308.15 K, x1 = 1) it was 33.13 ± 0.05; in data set [2] (313.15 K, x1 = 1) it was 32.66 ± 0.04.

For `O=[N+]([O-])c1ccccc1` [nitrobenzene] + CCOCCO, the relative permittivity in data set [2] (293.15 K, x1 = 1) is 35.91 ± 0.06; in data set [2] (298.15 K, x1 = 1), 34.78 ± 0.06; in data set [2] (303.15 K, x1 = 1), 33.84 ± 0.05; in data set [2] (308.15 K, x1 = 1), 33.13 ± 0.05; in data set [2] (313.15 K, x1 = 1), 32.66 ± 0.04.
